Measurements taken from US9526796B2, “Peptide-based in vivo siRNA delivery system” (priority 2010, dated 2016).
Non-standard residues stand in square brackets, D forms with d. Primed or numbered codes have the meaning given here. No end group written: not given here. PEG24′ = not defined here; Nle = CCCC[C@H](N)C(=O)O

How the values were obtained:
ApoB = assay: Knockdown of endogenous serum ApoB in mice after co-injection of masked melittin delivery peptide and ApoB siRNA-cholesterol conjugate; type: in vivo; details: for % knockdown: 200 μg siRNA
Description: (§1) RNAi polynucleotide conjugates and masked melittin peptides were synthesized as described above. Six to eight week old mice (strain C57BL/6 or ICR, ˜18-20 g each) were obtained from Harlan Sprague Dawley (Indianapolis Ind.). Mice were housed at least 2 days prior to injection. Feeding was performed ad libitum with Harlan Teklad Rodent Diet (Harlan, Madison Wis.). Mice were injected with 0.2 mL solution of delivery peptide and 0.2 mL siRNA conjugates into the tail vein. For simultaneous injection of delivery peptide and siRNA, the siRNA-conjugate was added to modified peptide prior to injection and the entire amount was injected. The composition was soluble and nonaggregating in physiological conditions. Solutions were injected by infusion into the tail vein.
Mice were fasted for 4 h (16 h for rats) before serum collection by submandibular bleeding. For rats blood was collected from the jugular vein. Serum ApoB protein levels were determined by standard sandwich ELISA methods. Briefly, a polyclonal goat anti-mouse ApoB antibody and a rabbit anti-mouse ApoB antibody (Biodesign International) were used as capture and detection antibodies respectively. An HRP-conjugated goat anti-rabbit IgG antibody (Sigma) was applied afterwards to bind the ApoB/antibody complex. Absorbance of tetramethyl-benzidine (TMB, Sigma) colorimetric development was then measured by a Tecan Safire2 (Austria, Europe) microplate reader at 450 nm.
Melittin was reversibly modified with CDM-NAG as described above. The indicated amount of melittin was then co-injected with the 200 μg ApoB siRNA-cholesterol conjugate. Effect on ApoB levels were determined as described above.
Melittin was reversibly modified with CDM-NAG as described above. The indicated amount of melittin was then co-injected with 50 μg ApoB siRNA-cholesterol conjugate. Effect on ApoB levels were determined as described above.
Melittin was reversibly modified with CDM-NAG (5×) as described above. The indicated amount of melittin was then co-injected with the indicated amount of ApoB siRNA-cholesterol conjugate. Effect on ApoB levels were determined as described above.
Melittin was reversibly modified with the indicated amount of CDM-NAG as described above. 50 μg melittin was then co-injected with the 100 μg ApoB siRNA-cholesterol conjugate. Effect on ApoB levels were determined as described above.
Melittin peptides having the indicated sequence were reversibly modified with CDM-NAG (5×) as described above. The indicated amount of melittin was then co-injected with the indicated amount of ApoB siRNA-cholesterol conjugate. Effect on ApoB levels were determined as described above.
Melittin peptides containing the indicated PEG amino terminal modifications were synthesized as described above. The PEG amino terminal modified melittin peptides were then reversibly modified with 5×CDM-NAG as described above. The indicated amount of Melittin was then co-injected with the 100-200 μg ApoB siRNA-cholesterol conjugate. Effect on ApoB levels were determined as described above. Addition of PEG less than 5 kDa in size decreased toxicity of the melittin peptides.

Factor VII = assay: Knockdown of plasma Factor VII activity in rats after co-injection of CDM-NAG masked melittin and cholesterol-Factor VII siRNA; type: in vivo; details: 5× CDM-NAG, 3 mg/kg cholesterol-Factor VII siRNA
Description: as §1
Wistar Han rats, 175-200 g were obtained from Charles River (Wilmington, Mass.). Rats were housed at least 1 week prior to injection. Injection volume for rats was typically 1 ml.
Plasma samples from animals were prepared by collecting blood (9 volumes) (by submandibular bleeding for mice or from jugular vein for rats) into microcentrifuge tubes containing 0.109 mol/L sodium citrate anticoagulant (1 volume) following standard procedures. F7 activity in plasma is measured with a chromogenic method using a BIOPHEN VII kit (Hyphen BioMed/Aniara, Mason, Ohio) following manufacturer's recommendations. Absorbance of colorimetric development was measured using a Tecan Safire2 microplate reader at 405 nm.
The indicated melittin was reversibly modified with 5×CDM-NAG as described above. The indicated amount of melittin, in mg per kg animal weight, was then co-injected with the 3 mg/kg cholesterol— Factor VII siRNA. Effect on Factor VII levels were determined as described above.

[1] = CDM-NAG (5×), amount in column 'siRNA' 400 μg
[2] = peptide 1 (mg per kg animal weight), relative to isotonic glucose injected animals
[3] = CDM-NAG (5×), 400 μg peptide per mouse, 100 μg siRNA per mouse
[4] = CDM-NAG (5×), 100 μg peptide per mouse, 100 μg siRNA per mouse

In the case of “GIGAILKVLATGLPTLISWIKNKRKQ (listed as Apis florea) [Seq ID 1, Apis florea melittin]”, the “% knockdown” value (ApoB; 5× CDM-NAG, 100 μg peptide, relative to isotonic glucose injected animals) is reported as 25%, the “% knockdown” value (ApoB; 5× CDM-NAG, 200 μg peptide) is reported as 51% and the “% knockdown” value (ApoB; 5× CDM-NAG, 400 μg peptide) is reported as 78%. For the same substance, the “% knockdown” value (ApoB; 5× CDM-NAG, 800 μg peptide) was 87%, the “% knockdown” value (ApoB; 5× CDM-NAG, 1200 μg peptide) was 94% and the “% knockdown” value (ApoB; 5× CDM-PEG, 800 μg peptide, relative to isotonic glucose injected animals) was 0%. The percent knockdown (ApoB; CDM-NAG (5×), amount in column 'siRNA' 200 μg) was 90%, the percent knockdown (ApoB; [1]) was 80% and the “Factor VII knockdown” value (Factor VII; [2]) was 30. For the same substance, the “Factor VII knockdown” value (Factor VII; peptide 3 (mg per kg)) was 83, the “Factor VII knockdown” value (Factor VII; peptide 10 (mg per kg)) was 90 and the “Factor VII knockdown” value (Factor VII; peptide 20 (mg per kg)) was 95.

“YIGAILKVLATGLPTLISWIKNKRKQ (melittin-like peptide derive from Apis florea) [Seq ID 11]” was tested, and the “Factor VII knockdown” value (Factor VII; [2]) was 93 and the “Factor VII knockdown” value (Factor VII; peptide 3 (mg per kg)) was 97.

With “CKLK-Mel G1L (Seq ID 57): melittin peptide derivative; in Table 9 also with amino terminal NAG-(PEG)2/4/8 or PEG (5k) (CKLKLIGAILKVLATGLPTLISWIKNKRKQ; N-terminal CKLK extension; melittin-like peptide derive from Apis florea)” the percent knockdown (ApoB; 5× CDM-NAG, amino terminal NAG-(PEG)2, 25 μg peptide, 100 μg siRNA) was 15%, the percent knockdown (ApoB; 5× CDM-NAG, amino terminal NAG-(PEG)2, 50 μg peptide, 100 μg siRNA) was 83% and the percent knockdown (ApoB; 5× CDM-NAG, amino terminal NAG-(PEG)4, 25 μg peptide, 100 μg siRNA) was 58%. The percent knockdown (ApoB; 5× CDM-NAG, amino terminal NAG-(PEG)4, 50 μg peptide, 100 μg siRNA) was 81%, the percent knockdown (ApoB; 5× CDM-NAG, amino terminal NAG-(PEG)4, 100 μg peptide, 100 μg siRNA) was 94% and the percent knockdown (ApoB; 5× CDM-NAG, amino terminal NAG-(PEG)8, 25 μg peptide, 100 μg siRNA) was 58%. The percent knockdown (ApoB; 5× CDM-NAG, amino terminal NAG-(PEG)8, 50 μg peptide, 100 μg siRNA) was 89%, the percent knockdown (ApoB; 5× CDM-NAG, amino terminal NAG-(PEG)8, 100 μg peptide, 100 μg siRNA) was 96% and the percent knockdown (ApoB; 5× CDM-NAG, amino terminal PEG (5k), 100 μg peptide, 100 μg siRNA) was 90%. For the same substance, the percent knockdown (ApoB; 5× CDM-NAG, no PEG modification, 150 μg peptide, 100 μg siRNA) was 91%, the percent knockdown (ApoB; 5× CDM-NAG, no PEG modification, 400 μg peptide, 100 μg siRNA) was 97% and the percent knockdown (ApoB; CDM-NAG (5×), 150 μg peptide per mouse, 100 μg siRNA per mouse) was 91%.

Ac-CIGAVLKVLTTGLPALISWIKRKRQQ-NH2 gave a percent knockdown (ApoB; CDM-NAG (5×), 400 μg peptide per mouse, 200 μg siRNA per mouse) of 85%.

With “G1L retroMel-KLK-Stearoyl (Seq ID 75): melittin peptide derivative (KLKQKRKNKIWSILTPLGTALVKLIAGIL; also: stearoyl, site not given here)” the percent knockdown (ApoB; [3]) was 50%.

For “PEG(5k)-KLK-dMel G1Y (Seq ID 56): melittin peptide derivative ({PEG 5k}-KLK[dY][dI]G[dA][dI][dL][dK][dV][dL][dA][dT]G[dL][dP][dT][dL][dI][dS][dW][dI][dK][dN][dK][dR][dK][dQ])”, the percent knockdown (ApoB; CDM-NAG (5×), 300 μg peptide per mouse, 100 μg siRNA per mouse) was 72%.

“C-dMel G1Nle (Seq ID 52): melittin peptide derivative (C[Nle]IGAILKVLATGLPTLISWIKNKRKQ; also: D-amino acids (dMel), positions not given here)” gave a percent knockdown (ApoB; [4]) of 84%.

With “PEG24-GKLK-Mel G1L (Seq ID 59): melittin peptide derivative ([PEG24′]GKLKLIGAILKVLATGLPTLISWIKNKRKQ)” the percent knockdown (ApoB; CDM-NAG (5×), 50 μg peptide per mouse, 100 μg siRNA per mouse) was 85%.

“G1W (Seq ID 10): melittin peptide derivative (WIGAILKVLATGLPTLISWIKNKRKQ; melittin-like peptide derive from Apis florea)” gave a percent knockdown (ApoB; CDM-NAG (5×), 200 μg peptide per mouse, 200 μg siRNA per mouse) of 96%.

“QQRKRKIWSILAALGTTLVKLVAGIC-NH2 (also: retro-inverso, methoxy, position not given here) [Seq ID 95 Retroinverso Methoxy]” was tested, and the percent knockdown (ApoB; CDM-NAG (5×), amount in column 'siRNA' 30 mg/kg) was 39%.

In the case of “G1L, K7R (Seq ID 19): melittin peptide derivative (LIGAILRVLATGLPTLISWIKNKRKQ; melittin-like peptide derive from Apis florea)”, the percent knockdown (ApoB; [4]) is reported as 92%.

Substance “QQRKRKIWSILAALGTTLVKLVAGIC-NH2 [Seq ID 95]” has a percent knockdown (ApoB; CDM-NAG (5×), siRNA 20 mg/kg) of 91%.

“G1L Mel-KLKC (Seq ID 65): melittin peptide derivative (LIGAILKVLATGLPTLISWIKNKRKQKLKC; C-terminal KLKC extension; melittin-like peptide derive from Apis florea)” was tested, and the percent knockdown (ApoB; [4]) was 97%.

“Apis Mellifera (Big Honey Bee; Seq ID 50): Apis mellifera melittin” gave a percent knockdown (ApoB; [3]) of 72%.

With “G1L, T15C dMel (Seq ID 24): melittin peptide derivative ([dL][dI]G[dA][dI][dL][dK][dV][dL][dA][dT]G[dL][dP][dC][dL][dI][dS][dW][dI][dK][dN][dK][dR][dK][dQ])” the percent knockdown (ApoB; [4]) was 95%.

In the case of “dimethyl-dMel I2Nle, I5Nle, T11C, I17Nle, I20Nle dMel (Seq ID 47): melittin peptide derivative (G[Nle]GA[Nle]LKVLACGLPTL[Nle]SW[Nle]KNKRKQ; also: dimethyl, site not given here, D-amino acids, positions not given here)”, the percent knockdown (ApoB; [4]) is reported as 78%.

“G1L, I2Nle, I5Nle, I17Nle, I20Nle (Seq ID 44): melittin peptide derivative (L[Nle]GA[Nle]LKVLATGLPTL[Nle]SW[Nle]KNKRKQ)” showed a percent knockdown (ApoB; [4]) of 99%.

With “QQRKRKIWSILAPLGTTLVKLVAGIC-NH2 [Seq ID 92]” the percent knockdown (ApoB; [1]) was 85% and the percent knockdown (ApoB; CDM-NAG (5×), siRNA 20 mg/kg) was 94%.
